# Results reported in patent US20230121926A1, “METHODS FOR TISSUE REGENERATION AND KITS THEREFOR” (THE BOARD OF TRUSTEES OF THE LELAND STANFORD JUNIOR …, priority 2020, published 2023).
# Key:
# [1] = tested on: deep partial-thickness excisional wounds; assay: Porcine deep partial-thickness excisional wound model; format: in vivo, red Duroc pigs
# Description: Porcine deep partial-thickness excisional wound model: Prior to operation, animals were administered oral amoxicillin 10 mg/kg for 24 hours. General anesthesia was administered by Veterinary Services personnel and was established with intramuscular telazol 6-8 mg/kg, administered once as a pre-anesthetic. Animals were then intubated using an endotracheal tube and maintained on 1.5-3% of inhaled isoflurane throughout the procedure. The hair on the back was clipped and skin was cleansed initially with Betadine© solution following by a 70% alcohol rinse. Excisional wounds were created with a standard electric Zimmer dermatome (Zimmer Biomet, Warsaw, Ind.). Up to eight wounds, approximately 5 cm×5 cm in size, were created on each lateral flank, with 3-5 cm intervals between wounds (FIG. 1A). Multiple dermatome passes were performed to create deep partial-thickness wounds of uniform 0.07 inch depth. The wounds were randomly assigned to receive either FAKI hydrogel (W_IF), blank hydrogel (‘placebo’, W_H), or no hydrogel (wounded control, W) (n=6-9 wounds per condition). Animals were given oral amoxicillin 10 mg/kg post-operatively twice a day for 5 days total. Wound dressings, including FAKI hydrogel patches, were changed every other day for the first three weeks after initial injury until POD 21 (FIG. 1C). Thereafter, dressings were changed twice per week until POD 90. Animals were subject to short-term sedation for each dressing change. The actual dose delivered to the wound was tested on porcine fresh wounds (red Duroc pigs). In a time-dependent study, the amount of VS-6062 detected at approximately 0.5 mm wound depth over 24 hours ranged from 30-100 microG/g tissue by weight. The amount of VS-6062 detected beyond 1 mm wound depth was less than 5 microG/g tissue. Wound closure, visual scar assessment, and viscoelastic analyses. Wounds were monitored photographically at each dressing change. Days to wound closure, defined as complete re-epithelialization without open wound area, were determined for each wound based on gross photographic assessment. Quantification of scar metrics were performed using a Visual Analog Scale (VAS) for 5 components (vascularity, pigmentation, observer comfort, acceptability, and contour) by a panel of four blinded scar experts. Total scores are calculated as a composite of all 5 scores; lower scores indicate improved scar appearance. A Cutometer (Dual MPA 580, Courage+Khazaka Electronic, Köln, Germany) was used to evaluate the firmness and elasticity of the healing wounds at POD 60. The cutometer measures the vertical deformation of the skin surface by applying a negative pressure (suction) through a small circular diameter (2 mm probe). Cutometer assessment is the gold standard to measure viscoelasticity in human patients. Deformation (suction) for two seconds followed by two seconds of relaxation (no suction) is applied for three cycles. The elasticity ratio (ability for tissue to return back to original setpoint) was measured during the relaxation period (R2 metric). Histological and immunofluorescent staining. […] Masson's Trichrome staining and Picrosirius Red staining were performed. Picrosirius Red-stained images were captured using polarized light microscopy (Leica DM5000 B upright microscope). Collagen fibers were also visualized using Second Harmonic Generation (SHG) on a Leica SP5 upright confocal multi-photon microscope using a […]. SHG images were captured with an excitation wavelength of 860 nm, a pulse length of approximately 100 fs, and an emission filter centered at 445 nm with a 20-nm bandwidth. Forward SHG was used to image fibroblasts and backward SHG was used to image in vivo tissue sections. Analysis of fiber alignment was performed on Picrosirius Red-stained images at 40× magnification using the custom software MatFiber, an intensity-gradient-detection algorithm for analysis of overall alignment of collagen fibers and stress fibers from multiple samples. […]
# [2] = Dose of VS-6062 delivered to porcine fresh wounds (tissue level by wound depth); format: in vivo, red Duroc pigs
# Description: Porcine deep partial-thickness excisional wound model: Prior to operation, animals were administered oral amoxicillin 10 mg/kg for 24 hours. General anesthesia was administered by Veterinary Services personnel and was established with intramuscular telazol 6-8 mg/kg, administered once as a pre-anesthetic. Animals were then intubated using an endotracheal tube and maintained on 1.5-3% of inhaled isoflurane throughout the procedure. The hair on the back was clipped and skin was cleansed initially with Betadine© solution following by a 70% alcohol rinse. Excisional wounds were created with a standard electric Zimmer dermatome (Zimmer Biomet, Warsaw, Ind.). Up to eight wounds, approximately 5 cm×5 cm in size, were created on each lateral flank, with 3-5 cm intervals between wounds (FIG. 1A). Multiple dermatome passes were performed to create deep partial-thickness wounds of uniform 0.07 inch depth. The wounds were randomly assigned to receive either FAKI hydrogel (W_IF), blank hydrogel (‘placebo’, W_H), or no hydrogel (wounded control, W) (n=6-9 wounds per condition). […] In a time-dependent study, the amount of VS-6062 detected at approximately 0.5 mm wound depth over 24 hours ranged from 30-100 microG/g tissue by weight. The amount of VS-6062 detected beyond 1 mm wound depth was less than 5 microG/g tissue.
# [3] = Systemic penetration of topically applied FAKI (mass spectrometry of peripheral blood); format: in vivo, pig; details: topical, approximately 7-10% of total body surface area, three pigs
# Description: FIG. 6B. Acute, systemic, and implantation toxicity testing of FAKI hydrogel in the porcine model. Mass spectrometry of peripheral blood samples of FAKI-treated pigs was performed to assess systemic penetration of topically applied FAKI covering approximately 7-10% of the total body surface area relative to serum FAKI levels after oral administration of FAKI from a human study. Serum FAKI concentrations via localized delivery were negligible in three independent experiments collected from three different pigs.
# dermal fibroblasts = assay: Fibroblast-populated 3D collagen scaffold under strain (alignment, contraction); format: cell-based, human
# Description: Mechanotransduction shifts human fibroblast heterogeneity. […] To confirm the translational potential of the results in the porcine model on the role of mechanotransduction in the fibrotic response, dermal fibroblasts isolated from human surgical patients were then evaluated. Cells were seeded within 3D collagen scaffolds at densities of 2.0 mg/mL collagen and 200,000 cells/mL (FIG. 2A). To artificially increase tissue forces, the mechanical strain applied to fibroblasts was precisely manipulated as described in Chen, K. et al, “Role of boundary conditions in determining cell alignment in response to stretch”, PNAS 115, 986-991, doi:10.1073/pnas.1715059115 (2018), the entire disclosure of which is hereby incorporated by reference in its entirety, and shown in FIG. 2B and FIG. 9A. […] The efficacy of this in vitro system to mimic the fibrogenic phenotype observed in healing wounds and resultant scar was confirmed. […] Fibroblast reorganization of ECM drives collagen remodeling and development of long, aligned collagen fibers characteristic of fibrosis. […]
# Fibroblast-populated 3D collagen scaffold experiments. […] Nine Titanium (IV) oxide paint dots (Sigma-Aldrich) were applied on the surface of the central region of the gel (boxes in FIG. 9A) to track and quantify the imposed strains. […]
# human dermal fibroblasts = assay: scRNA-seq of strained human dermal fibroblasts in 3D collagen scaffolds; format: cell-based
# Excerpt: Using this experimental system, in vivo dermal strain patterns were mimicked, imposing biaxial strain upon the fibroblasts, while also attenuating mechanotransduction in a subset of samples. The collagen scaffolds were enzymatically digested to obtain cellular suspensions of fibroblasts, which were then processed for scRNA-seq, as shown in FIGS. 2A and 2C. All single cell data were initially analyzed in a manner blinded to phenotype of origin. Following log-normalization, pooled data were subjected to semi-supervised Louvain-based clustering and embedded into UMAP-space (Seurat). Eight transcriptionally distinct subpopulations (cluster 0 to cluster 7) were identified among cells from the pooled data superset, as shown in FIG. 2D. When unblinded, considerable permissiveness among clusters were found across both phenotypes and biological replicates, consistent with the known heterogeneity among human dermal fibroblasts (FIG. 2D).
# Fibroblast-populated 3D collagen scaffold experiments. Dermal fibroblasts were isolated from both porcine and human skin samples and cultured separately. Porcine skin was obtained from the unwounded (normal skin) areas of a euthanized red duroc pig. Human skin samples were obtained under the approved IRB (#54225) and collected from three surgical procedures; a breast mastectomy, an abdominoplasty, and a thighplasty (n=3 patients). Fibroblasts were isolated by mechanical and enzymatic digestion and cultured under standard conditions until passage 3. The primary fibroblast cultures were then used to create fibroblast-populated collagen hydrogels at final concentration of 200 k cells/mL and 2 mg/mL collagen (PureCol, Advanced Biomatrix, San Diego, Calif.), following protocols as described in Chen, K. et al, “Role of boundary conditions in determining cell alignment in response to stretch”, PNAS 115, 986-991, doi:10.1073/pnas.1715059115 (2018), the entire disclosure of which is hereby incorporated by reference in its entirety. In brief, collagen scaffolds were formulated in a cruciform shape in petri dishes with a PDMS coating (˜4 mm) on the bottom (FIG. 2B). Pins were pushed through the hydrogel cruciform arms to constrain the scaffolds in both directions for a 24h pre-culture period before being subjected to either no strain, 10% equibiaxial strain, or strain+FAKI treatment for an additional 48 hours (FIGS. 2A-2B, FIG. 9A). FAKI treatment was administered by adding 20 mM FAKI in DMSO into the culture media of the scaffolds to achieve a final concentration of 10 micromolar FAKI for 48 hours. Strain was imposed by removing the anchoring pins, manually extending the hydrogel cruciform arms, and pushing the pins back to hold the arms in the new, extended position. Nine Titanium (IV) oxide paint dots (Sigma-Aldrich) were applied on the surface of the central region of the gel (boxes in FIG. 9A) to track and quantify the imposed strains. A digital camera was used to image the markers before and after strain. Photographs of marker position were used to compute a single homogenous deformation gradient tensor F that provided the least-squares best fit mapping of the 9 marker positions from the undeformed to deformed positions by solving the overdetermined matrix equation: […]
# Single cell barcoding, library preparation, and single cell RNA sequencing. After two days of increased (induction of strain) or inhibited (induction of strain+FAKI) mechanotransduction, collagen scaffolds were micro-dissected and enzymatically digested to obtain cellular suspensions of human fibroblasts for droplet-based microfluidic single cell RNA sequencing (scRNA-seq) using the 10× Chromium Single Cell platform (FIG. 2C) (Single Cell 3′ v3, 10× Genomics, USA). A droplet of the cell suspensions, reverse transcription master mix, and partitioning oil was loaded onto a single cell chip and processed on the Chromium Controller. […]
# [4] = POD 60, versus untreated wounds
# [5] = porcine wound tissue, treated vs untreated
# [6] = 10% strain, 10 micromolar FAKI, 48 hours
smiles,measurement,setting,value
CN(c1ncccc1CNc1nc(Nc2ccc3c(c2)CC(=O)N3)ncc1C(F)(F)F)S(C)(=O)=O [VS-6062],"regeneration of secondary structures (hair follicles, cutaneous glands)","[1]; Masson's Trichrome, POD 90 and POD 180",regrowth of hair follicles and other cutaneous glands
same,wound elasticity (cutometer),[1]; [4],increased elasticity
same,wound firmness (cutometer),[1]; [4],decreased firmness
same,intradermal adipocytes (Perilipin A staining),"[1]; POD 90, deep dermal layer",regeneration of Perilipin A-positive intradermal adipocytes
same,healing earlier than wounds treated with standard dressings or empty hydrogels,[1]; controls healed after POD 24,more than 10 days
same,gross appearance of the treated wounds,[1]; difference in scarring evident as early as POD 40,normal appearing skin
same,collagen structure of healed wounds (Picrosirius Red),"[1]; pig, in vivo",basket weave-like collagen structure characteristic to unwounded porcine skin
same,protein expression of Collagen I (immunofluorescence),[1]; [5],decreased
same,protein expression of Collagen III (immunofluorescence),[1]; [5],decreased
same,protein expression of MMP1 (immunofluorescence),[1]; [5],increased
same,protein expression of MMP3 (immunofluorescence),[1]; [5],increased
same,protein expression of alpha SMA (immunofluorescence),[1]; [5],decreased
same,time at which wounds were fully healed,"[1]; sustained release hydrogel scaffold, 5x5 cm wounds",14±2.3 postoperative day (POD)
same,CT-FIRE fiber count,[1]; trend,return number of fibers closer to unwounded skin
same,amount of VS-6062 detected in wound tissue,"[2]; approximately 0.5 mm wound depth, over 24 hours",30-100 microG/g tissue by weight
same,amount of VS-6062 detected in wound tissue,[2]; beyond 1 mm wound depth,less than 5 microG/g tissue
same,serum FAKI concentrations via localized delivery,[3],negligible
same,fibroblast alignment under uniaxial strain,"dermal fibroblasts; 10% uniaxial strain, 10 micromolar FAKI",aligned multi-directionally
same,contraction assay: fibroblast remodeling of the ECM environment,dermal fibroblasts; collagen scaffolds,hinders the fibroblasts from remodeling (R) the ECM environment
same,expression of AIMP3,human dermal fibroblasts; [6],increased
same,expression of MMP1,human dermal fibroblasts; [6],increased
same,expression of Mmp10,human dermal fibroblasts; [6],significantly upregulated
same,transcription of COL1A1,human dermal fibroblasts; [6],strongly reduced
same,transcription of COL3A1,human dermal fibroblasts; [6],strongly reduced
same,"strain-induced pro-fibrotic, myofibroblast and mechanotransduction gene expression (ACTA2, PDGFRA, RUNX1, ZEB2, MAPK1, PI3KR1, EGFR, RAC1, YAP1)",human dermal fibroblasts; strained fibroblasts with FAKI,abrogated nearly all of these fibrotic signaling changes
